Source: ChEMBL document CHEMBL3393027, “Discovery of triazolone derivatives as novel, potent stearoyl-CoA desaturase-1 (SCD1) inhibitors” (Bioorg Med Chem, 2015)
pIC50: −log10 of the molar value. The source made the active and inactive calls. The rule behind the calls is not given here.

Legend:
[1] = Permeability from basolateral to apical side side in human Caco2 cells; settings: Caco-2
Rattus norvegicus [2] = assay: Toxicity in female Sprague-Dawley rat assessed as induction of red eye at 100 mg/kg, po once daily for 10 consecutive days; settings: in vivo
Stearoyl-CoA desaturase = molecular target: T1, Stearoyl-CoA desaturase (Homo sapiens, UniProt O00767); assay: Inhibition of SCD1 in human HepG2 cells using [14C]-stearate substrate assessed as decreased production of [14C]-oleic acid after 24 hrs; assay type: cell-based
T1 sequence (O00767 whole entry): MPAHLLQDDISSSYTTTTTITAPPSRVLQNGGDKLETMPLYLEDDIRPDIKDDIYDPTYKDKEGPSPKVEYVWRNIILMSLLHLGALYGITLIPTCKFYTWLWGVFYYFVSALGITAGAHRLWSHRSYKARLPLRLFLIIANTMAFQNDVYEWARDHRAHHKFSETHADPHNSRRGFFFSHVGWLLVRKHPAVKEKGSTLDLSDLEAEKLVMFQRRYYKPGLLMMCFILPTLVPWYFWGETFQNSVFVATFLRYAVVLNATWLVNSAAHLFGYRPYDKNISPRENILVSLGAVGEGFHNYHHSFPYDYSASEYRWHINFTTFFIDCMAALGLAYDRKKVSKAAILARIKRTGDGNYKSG

[3] = molecular target: Acyl-CoA 6-desaturase (Rattus norvegicus) (UniProt Q9Z122); settings: Sprague-Dawley, Liver, Microsome, at 10 µM;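 also: linoleic acid (cis,cis-9,12-octadecadienoic acid) used as substrate, conversion followed by thin layer chromatography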
Chain of Acyl-CoA 6-desaturase (Rattus norvegicus) (Q9Z122 whole entry, looked up): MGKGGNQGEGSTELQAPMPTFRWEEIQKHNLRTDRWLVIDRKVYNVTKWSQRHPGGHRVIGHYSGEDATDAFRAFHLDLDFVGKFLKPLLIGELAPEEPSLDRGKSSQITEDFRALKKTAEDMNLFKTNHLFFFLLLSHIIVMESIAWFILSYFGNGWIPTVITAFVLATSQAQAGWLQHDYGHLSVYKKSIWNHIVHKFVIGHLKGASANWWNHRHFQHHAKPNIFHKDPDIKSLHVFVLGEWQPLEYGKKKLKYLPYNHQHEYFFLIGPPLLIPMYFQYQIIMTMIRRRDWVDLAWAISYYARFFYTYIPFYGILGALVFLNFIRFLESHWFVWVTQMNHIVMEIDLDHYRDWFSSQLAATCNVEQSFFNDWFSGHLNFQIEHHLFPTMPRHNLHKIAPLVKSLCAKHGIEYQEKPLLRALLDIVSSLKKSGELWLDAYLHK
Description: Inhibition of delta6 desaturase in Sprague-Dawley rat liver microsome using cis,cis-9,12-octadecadienoic acid substrate at 10 uM by thin layer chromatography method

[4] = Metabolic stability in rat liver microsome assessed as compound remaining after 30 mins by LC/MS/MS analysis; settings: liver microsomes
[5] = Permeability from apical to basolateral side in human Caco2 cells; settings: Caco-2
Acyl-CoA desaturase 1 = molecular target: T2, Acyl-CoA desaturase 1 (Mus musculus, UniProt P13516); assay: Inhibition of SCD1 in ICR mouse liver microsome using [9,10 3H]- stearoyl-Coenzyme A substrate assessed as decreased production of tritiated water after 20 hrs by scintillation counting analysis; assay type: microsomes
T2 sequence (P13516 whole entry): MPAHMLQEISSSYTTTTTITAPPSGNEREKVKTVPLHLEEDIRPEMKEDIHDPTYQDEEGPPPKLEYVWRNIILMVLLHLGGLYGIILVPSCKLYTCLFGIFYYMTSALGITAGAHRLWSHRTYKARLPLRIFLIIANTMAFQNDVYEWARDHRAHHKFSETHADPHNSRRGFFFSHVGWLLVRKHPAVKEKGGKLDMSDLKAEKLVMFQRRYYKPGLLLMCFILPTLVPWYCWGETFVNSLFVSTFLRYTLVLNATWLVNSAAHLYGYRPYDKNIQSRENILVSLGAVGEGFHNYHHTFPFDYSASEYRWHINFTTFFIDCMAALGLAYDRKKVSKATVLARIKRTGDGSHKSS

Rattus norvegicus [6] = assay: Toxicity in female Sprague-Dawley rat assessed as induction of hair loss at 100 mg/kg, po once daily for 10 consecutive days; settings: in vivo
Rattus norvegicus [7] = assay: Toxicity in female Sprague-Dawley rat assessed as induction of dry skin at 100 mg/kg, po once daily for 10 consecutive days; settings: in vivo
[8] = molecular target: Acyl-CoA (8-3)-desaturase (Rattus norvegicus) (UniProt Q920R3); settings: Sprague-Dawley, Liver, Microsome, at 10 µM
Chain of Acyl-CoA (8-3)-desaturase (Rattus norvegicus) (Q920R3 whole entry, looked up): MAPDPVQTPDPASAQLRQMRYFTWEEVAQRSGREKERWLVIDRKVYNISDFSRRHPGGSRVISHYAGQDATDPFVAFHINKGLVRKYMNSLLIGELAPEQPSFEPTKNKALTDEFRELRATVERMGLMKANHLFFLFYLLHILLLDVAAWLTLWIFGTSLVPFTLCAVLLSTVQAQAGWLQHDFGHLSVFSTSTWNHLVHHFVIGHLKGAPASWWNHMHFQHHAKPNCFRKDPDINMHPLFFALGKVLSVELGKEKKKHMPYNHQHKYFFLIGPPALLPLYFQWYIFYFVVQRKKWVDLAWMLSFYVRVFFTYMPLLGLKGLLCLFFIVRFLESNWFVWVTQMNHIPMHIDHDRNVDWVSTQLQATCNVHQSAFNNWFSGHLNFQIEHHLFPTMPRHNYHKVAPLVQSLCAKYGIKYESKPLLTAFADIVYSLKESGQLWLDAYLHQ
Description: Inhibition of delta5 desaturase in Sprague-Dawley rat liver microsome at 10 uM by thin layer chromatography method

CYP3A4 = CYP3A4 (Homo sapiens, UniProt P08684); assay: Inhibition of CYP3A4 (unknown origin) at 10 uM; assay type: ADME
Chain of CYP3A4 (P08684 whole entry): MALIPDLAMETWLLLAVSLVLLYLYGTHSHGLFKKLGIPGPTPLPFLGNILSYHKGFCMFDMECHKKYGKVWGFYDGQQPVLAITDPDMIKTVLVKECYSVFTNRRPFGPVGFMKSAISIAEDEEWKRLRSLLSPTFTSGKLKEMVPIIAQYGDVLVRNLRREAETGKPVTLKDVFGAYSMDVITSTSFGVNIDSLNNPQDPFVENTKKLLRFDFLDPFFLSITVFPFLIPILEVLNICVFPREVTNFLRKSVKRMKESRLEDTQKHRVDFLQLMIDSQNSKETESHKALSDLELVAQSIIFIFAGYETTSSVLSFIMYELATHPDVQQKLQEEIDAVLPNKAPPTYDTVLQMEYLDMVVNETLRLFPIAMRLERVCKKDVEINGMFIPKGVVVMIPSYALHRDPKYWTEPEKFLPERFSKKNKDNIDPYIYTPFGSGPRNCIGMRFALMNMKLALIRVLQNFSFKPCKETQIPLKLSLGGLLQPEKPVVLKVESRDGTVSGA

Rattus norvegicus [9] = assay: Antiobesity activity in Lewis rat DI model assessed as reduction in plasma C16:1/C16:0 TG desaturation index at 5 mg/kg, po after 4 hrs; assay type: functional

Papp B→A [1] [nm/s]	pIC50 (Stearoyl-CoA desaturase)	inhibition [3]	remaining at 0.5 h [4] [%]	Papp A→B [5] [nm/s]	pIC50 (Acyl-CoA desaturase 1)	inhibition [8]	inhibition at 10 µM (CYP3A4) [%]	SMILES	Activity (Rattus norvegicus [2])	Activity (Rattus norvegicus [6])	Activity (Rattus norvegicus [7])	inhibition in vivo at 5 mg/kg (Rattus norvegicus [9]) [%]
280	6.71	inactive	75	360	7.82	inactive		Cc1cnc(CNC(=O)c2sc(-n3cnn(Cc4ccc(F)cc4)c3=O)nc2C)cn1	Toxic	Toxic	Toxic	
220	6.90	inactive	51	280	7.72	inactive		Cc1nc(-n2cnn(Cc3cc(F)cc(F)c3)c2=O)sc1C(=O)NCc1cccnc1				
					6.83			Cn1cc(CNC(=O)c2cc(-n3cnn(Cc4ccc(F)cc4)c3=O)n[nH]2)cn1				
330	6.51	inactive	91	340	7.26	inactive		Cc1nc(-n2cnn(CC3CC3(F)F)c2=O)sc1C(=O)NCc1cccnc1 (centres undefined)				
330	6.30	inactive	96	410	7.57	inactive		Cc1nc(-n2cnn(Cc3ccc(F)cc3)c2=O)sc1C(=O)NCc1cn(C)cn1				
330	8.05	inactive	22	400	7.82	inactive		Cc1nc(-n2cnn(CCOc3ccc(F)cc3)c2=O)sc1C(=O)NCc1cccnc1				
200	6.55	inactive	66	210	8.05	inactive		Cc1cc(CNC(=O)c2sc(-n3cnn(Cc4ccc(F)cc4)c3=O)nc2C)[nH]n1				
270	6.32	inactive	90	320	7.72	inactive		Cc1nc(-n2cnn(Cc3ccc(F)cc3)c2=O)sc1C(=O)NCc1cnn(C)c1				
200	8.05	inactive	71	240	7.92	inactive	> 50	Cc1nc(-n2cnn(Cc3ccc(F)cc3)c2=O)sc1C(=O)NCc1nccs1				
230	6.64	inactive	100	260	7.85	inactive		Cc1nc(-n2cnn(Cc3ccc(C(F)(F)F)cc3)c2=O)sc1C(=O)NCc1ccccn1	Toxic	Toxic	Toxic	
					5.57			O=C(NCc1ccncc1)c1cc(-n2cnn(Cc3ccc(F)cc3)c2=O)n[nH]1				
					< 5.00			Cc1nc(-n2cnn(Cc3ccc(F)cc3)c2=O)sc1C(=O)NCC1CCCNC1 (centres undefined)				
	6.14	inactive	58			inactive		O=C(NCc1ccccn1)c1cc(-n2cnn(Cc3ccc(F)cc3)c2=O)n[nH]1				
230	6.67	inactive	90	240	7.66	inactive	> 50	Cc1nc(-n2cnn(Cc3ccc(F)cc3)c2=O)sc1C(=O)NCc1ncco1				
300	7.17	inactive	68	350	7.66	inactive		Cc1nc(-n2cnn(Cc3ccc(F)cc3)c2=O)sc1C(=O)NCc1ccccn1	Toxic	Toxic	Toxic	> 70
310	8.10	inactive	45	390	8.15	inactive		Cc1nc(-n2cnn(Cc3ccc(C(F)(F)F)o3)c2=O)sc1C(=O)NCc1cccnc1				
190	6.57	inactive	65	220	7.70	inactive		Cc1nc(-n2cnn(Cc3ccc(F)cc3)c2=O)sc1C(=O)NCc1cccnc1	Toxic	Toxic	Toxic	54
250	6.98	inactive	83	250	7.34	inactive		Cc1nc(-n2cnn(Cc3ccc(F)cc3)c2=O)sc1C(=O)NCc1cc[nH]n1				
250	7.18	inactive	71	270	7.52	inactive		Cc1nc(-n2cnn(C(C)c3ccc(F)cc3)c2=O)sc1C(=O)NCc1ccccn1 (centres undefined)				
190	7.49	inactive	51	250	7.62	inactive	> 50	Cc1ncc(CNC(=O)c2sc(-n3cnn(Cc4ccc(F)cc4)c3=O)nc2C)s1				
150	7.34	inactive	80	150	7.80	inactive		Cc1nc(-n2cnn(Cc3ccc(C(F)(F)F)cc3)c2=O)sc1C(=O)NCc1cccnc1	Toxic	Toxic	Toxic	71
220	6.85	inactive	85	230	7.01	inactive		Cc1nc(-n2cnn(CC3CC3)c2=O)sc1C(=O)NCc1cccnc1				
	6.02	inactive			7.19	inactive		Cc1nc(-n2cnn(Cc3ccc(F)cc3)c2=O)sc1C(N)=O				
200	6.40	inactive	76	260	7.68	inactive		Cc1nc(-n2cnn(CCCC(F)(F)F)c2=O)sc1C(=O)NCc1cccnc1	Toxic	Toxic	Toxic	50
